Data on 15 molecules can be found in patent publication US20240116877A1, “KIT KINASE INHIBITORS AND METHODS OF USE THEREOF” (Deciphera Pharmaceuticals, LLC, priority 2021, published 2024).

Read-outs that look alike come from different tables or passages of the source. Where only a bound is given, the exact number is not on record here.

One assay concerns Ba/F3 KIT mutant cells. The assay is described as follows: Ba/F3 mutant KIT Cell Proliferation Assays (resazurin). The format is cell-based. The conditions noted are these: Mus musculus, BaF3. Summed up: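 IC50 values come from resazurin fluorescence (ex 540, em 600) after 5 h dye exposure, added as a 440 μM solution. Cells were IL-3-independent Ba/F3 expressing mutant KIT from a lentiviral vector, puromycin-selected.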
For orientation: The colour change of resazurin is a common sign of viable cells or microbes.

A further assay has as its target c-KIT kinase (uKIT) (Homo sapiens (Human), UniProt P10721). The assay is described as follows: Biochemical Assay for uKIT (coupled pyruvate kinase/lactate dehydrogenase assay). Conditions: Inhibition of biochemical activity of uKIT kinase; 1 mM ATP. The method, boiled down: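 IC50 from percent inhibition of reaction rate over 2-3 h, relative to no-compound and known-inhibitor controls. KIT enzyme (16 nM or 4.36 nM, two sequences) ran with 1 mM ATP and 0.7 mg/mL PE4Y in Tris pH 7.5, 30° C; ATP turnover coupled to NADH loss at 340 nm.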

A further assay relates to GIST 430 cells. The assay can be described thus: GIST 430 Cell Proliferation Assay (resazurin). The format is cell-based. The conditions noted are these: Homo sapiens; GIST430 cell proliferation. Summed up: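 Five thousand cells per well were exposed to serially diluted compound in complete growth medium for 115 h at 37 degrees Celsius, 5% CO2. Resazurin was then added for a further 5 h, fluorescence read at 540 nm excitation/600 nm emission, and IC50 values calculated.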

[1] abbreviates: Ba/F3 KIT AYdup-V654A mutant cell proliferation, read-out: AYdup-V654A IC50.
The mark [2] stands for this setting: Ba/F3 KIT exon11del-V654A mutant cell proliferation, read-out: exon11del-V654A IC50.
[3] abbreviates: Ba/F3 KIT exon11del-Y823D mutant cell proliferation, read-out: exon11del-Y823D IC50.
Where [4] appears, read: Ba/F3 KIT AYdup mutant cell proliferation, read-out: AYdup IC50.
Where [5] appears, read: Ba/F3 KIT AYdup-D816G mutant cell proliferation, read-out: AYdup-D816G IC50.

Sequence of c-KIT kinase (uKIT) (P10721 other isoform, or with tags, fused parts or gaps): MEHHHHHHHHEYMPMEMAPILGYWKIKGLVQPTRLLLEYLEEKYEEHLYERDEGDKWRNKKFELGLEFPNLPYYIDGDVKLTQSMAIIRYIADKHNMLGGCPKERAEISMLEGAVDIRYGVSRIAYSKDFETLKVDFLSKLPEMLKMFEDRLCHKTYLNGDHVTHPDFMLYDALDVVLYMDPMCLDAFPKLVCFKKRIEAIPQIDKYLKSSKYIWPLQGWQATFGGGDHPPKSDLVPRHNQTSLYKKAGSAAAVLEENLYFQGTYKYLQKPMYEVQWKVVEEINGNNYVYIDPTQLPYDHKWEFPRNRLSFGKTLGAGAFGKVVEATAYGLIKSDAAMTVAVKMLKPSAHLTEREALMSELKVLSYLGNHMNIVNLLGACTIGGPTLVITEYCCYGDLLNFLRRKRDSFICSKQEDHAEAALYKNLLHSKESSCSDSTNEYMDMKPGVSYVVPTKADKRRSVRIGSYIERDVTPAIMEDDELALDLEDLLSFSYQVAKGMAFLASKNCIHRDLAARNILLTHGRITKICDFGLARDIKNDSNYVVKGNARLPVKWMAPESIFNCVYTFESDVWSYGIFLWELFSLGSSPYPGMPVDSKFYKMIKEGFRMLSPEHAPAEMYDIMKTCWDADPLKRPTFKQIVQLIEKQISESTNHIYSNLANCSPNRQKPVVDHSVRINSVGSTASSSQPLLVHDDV

Broadly, the IC50 is the concentration that gives 50% inhibition. On to `COCCOc1cc(F)c2c(Nc3ccc(NC(=O)CC(=O)N4CCOCC4)cc3)ncnc2c1` [Example 185], for which the 50% inhibitory concentration (IC50) was above 1000 nM in the assay with Ba/F3 KIT mutant cells (setting [1]); above 1000 nM in the assay with Ba/F3 KIT mutant cells (setting [2]); above 1000 nM with Ba/F3 KIT mutant cells (setting [3]); 100 to 1000 nM on c-KIT kinase (uKIT); 100 to 1000 nM in the assay with GIST 430 cells.

As for `COCCOc1cc(F)c2c(Nc3ccc(NC(=O)NCCCC(C)(C)F)cc3)ncnc2c1` [Example 106], the 50% inhibitory concentration (IC50) was 10 to 100 nM in the assay with Ba/F3 KIT mutant cells (setting [1]); at most 10 nM in the assay with Ba/F3 KIT mutant cells (setting [2]); 10 to 100 nM with Ba/F3 KIT mutant cells (setting [3]); at most 10 nM on c-KIT kinase (uKIT); at most 10 nM in the assay on GIST 430 cells.

On to `COCCOc1cc(F)c2c(Nc3ccc(NC(=O)CC(=O)NC4CCCC4)cc3)ncnc2c1` [Example 92], for which the concentration for half-maximal inhibition (IC50) was at most 10 nM in the assay on Ba/F3 KIT mutant cells (setting [4]); 10 to 100 nM in the assay with Ba/F3 KIT mutant cells (setting [5]); 10 to 100 nM in the assay with Ba/F3 KIT mutant cells (setting [1]); at most 10 nM with Ba/F3 KIT mutant cells (setting [2]); 10 to 100 nM with Ba/F3 KIT mutant cells (setting [3]); at most 10 nM at c-KIT kinase (uKIT). Also, the IC50 with GIST 430 cells was at most 10 nM.

As for `COCCOc1cc(F)c2c(Nc3ccc(NC(=O)CC(=O)NCC(C)(C)OC)cc3)ncnc2c1` [Example 5, N^1-(4-((5-fluoro-7-(2-methoxyethoxy)quinazolin-4-yl)amino)phenyl)-N^3-(2-methoxy-2-methylpropyl)malonamide], the IC50 with Ba/F3 KIT mutant cells (setting [1]) is 10 to 100 nM; with Ba/F3 KIT mutant cells (setting [2]), 10 to 100 nM; in the assay on Ba/F3 KIT mutant cells (setting [3]), above 1000 nM; against c-KIT kinase (uKIT), 10 to 100 nM; with GIST 430 cells, 10 to 100 nM.

With `COCCOc1cc(F)c2c(Nc3ccc(NC(=O)CC4CCN(C)CC4)cc3)ncnc2c1` [Example 40], the IC50 in the assay on Ba/F3 KIT mutant cells (setting [2]), on c-KIT kinase (uKIT) and with GIST 430 cells was above 1000 nM in each case.

As for `COCCOc1cc(F)c2c(Nc3ccc(NC(=O)CC(=O)NCC(C)(C)C(F)(F)F)cc3)ncnc2c1` [Example 88], the 50% inhibitory concentration (IC50) with Ba/F3 KIT mutant cells (setting [4]) was at most 10 nM; in the assay with Ba/F3 KIT mutant cells (setting [5]), at most 10 nM; with Ba/F3 KIT mutant cells (setting [1]), 10 to 100 nM; in the assay on Ba/F3 KIT mutant cells (setting [2]), at most 10 nM; in the assay with Ba/F3 KIT mutant cells (setting [3]) it was 10 to 100 nM; against c-KIT kinase (uKIT), 10 to 100 nM. Moreover, the half-maximal inhibitory concentration (IC50) in the assay on GIST 430 cells is at most 10 nM.

For the molecule `COCCOc1cc(F)c2c(Nc3ccc(NC(=O)CC(=O)NCC(C)(C)F)cc3)ncnc2c1` [Example 89], the half-inhibitory concentration (IC50) lay within 10 to 100 nM in the assay with Ba/F3 KIT mutant cells (setting [1]); 10 to 100 nM in the assay with Ba/F3 KIT mutant cells (setting [2]); 100 to 1000 nM with Ba/F3 KIT mutant cells (setting [3]); 10 to 100 nM against c-KIT kinase (uKIT); 10 to 100 nM in the assay on GIST 430 cells.

Turning to `COCCOc1cc(F)c2c(Nc3ccc(NC(=O)CC(=O)NCC4(C)CCCO4)cc3)ncnc2c1` (centres unmarked) [Example 110], the IC50 was 100 to 1000 nM with Ba/F3 KIT mutant cells (setting [1]); 10 to 100 nM in the assay with Ba/F3 KIT mutant cells (setting [2]); above 1000 nM in the assay with Ba/F3 KIT mutant cells (setting [3]); 10 to 100 nM on c-KIT kinase (uKIT); 10 to 100 nM with GIST 430 cells.

With `COCCOc1cc(F)c2c(Nc3ccc(NC(=O)NCCC(C)(C)C)cc3)ncnc2c1` [Example 9], the IC50 in the assay with Ba/F3 KIT mutant cells (setting [4]) was at most 10 nM; in the assay on Ba/F3 KIT mutant cells (setting [5]), at most 10 nM; in the assay on Ba/F3 KIT mutant cells (setting [1]), at most 10 nM; in the assay on Ba/F3 KIT mutant cells (setting [2]), at most 10 nM; in the assay on Ba/F3 KIT mutant cells (setting [3]), 10 to 100 nM; against c-KIT kinase (uKIT) it was at most 10 nM. In the assay on GIST 430 cells, the IC50 is at most 10 nM.

Consider `COCCOc1cc(F)c2c(Nc3ccc(NC(=O)C(=O)NCCC(C)(C)C)cc3)ncnc2c1` [Example 125], for which the IC50 in the assay on Ba/F3 KIT mutant cells (setting [1]), in the assay on Ba/F3 KIT mutant cells (setting [2]), against c-KIT kinase (uKIT) and with GIST 430 cells was 10 to 100 nM each time.

On to `COCCOc1cc(F)c2c(Nc3ccc(NC(=O)CC(=O)N4CCOCC4(C)C)cc3)ncnc2c1` [Example 154], for which the half-inhibitory concentration (IC50) in the assay with Ba/F3 KIT mutant cells (setting [1]) was 100 to 1000 nM; with Ba/F3 KIT mutant cells (setting [2]), 100 to 1000 nM; in the assay on Ba/F3 KIT mutant cells (setting [3]), 100 to 1000 nM; against c-KIT kinase (uKIT), 10 to 100 nM; with GIST 430 cells, 10 to 100 nM.

As to `COCCOc1cc(F)c2c(Nc3ccc(NC(=O)CC(=O)NC(C)C)cc3)ncnc2c1` [Example 96], the 50% inhibitory concentration (IC50) is 10 to 100 nM in the assay with Ba/F3 KIT mutant cells (setting [1]); 10 to 100 nM with Ba/F3 KIT mutant cells (setting [2]); above 1000 nM in the assay with Ba/F3 KIT mutant cells (setting [3]); 10 to 100 nM at c-KIT kinase (uKIT); 10 to 100 nM with GIST 430 cells.

Consider `COCCOc1cc(F)c2c(Nc3ccc(NC(=O)CC(=O)N4C5CCC4CC5)cc3)ncnc2c1` [Example 188], for which the IC50 in the assay on Ba/F3 KIT mutant cells (setting [1]) lay within 100 to 1000 nM; in the assay with Ba/F3 KIT mutant cells (setting [2]), 100 to 1000 nM; with Ba/F3 KIT mutant cells (setting [3]), 100 to 1000 nM; against c-KIT kinase (uKIT), 10 to 100 nM; in the assay on GIST 430 cells it was 100 to 1000 nM.

For `COCCOc1cc(F)c2c(Nc3ccc(NC(=O)NCC=C(C)C)cc3)ncnc2c1` [Example 133], the IC50 in the assay on Ba/F3 KIT mutant cells (setting [1]) is at most 10 nM; in the assay on Ba/F3 KIT mutant cells (setting [2]), at most 10 nM; in the assay with Ba/F3 KIT mutant cells (setting [3]) it was 10 to 100 nM; at c-KIT kinase (uKIT) it was at most 10 nM; in the assay on GIST 430 cells it was 10 to 100 nM.

Take `COCCOc1cc(F)c2c(Nc3ccc(NC(=O)CC4CCC(F)(F)CC4)cc3)ncnc2c1` [Example 41]: the 50% inhibitory concentration (IC50) in the assay on Ba/F3 KIT mutant cells (setting [4]) is at most 10 nM; in the assay with Ba/F3 KIT mutant cells (setting [5]), 10 to 100 nM; with Ba/F3 KIT mutant cells (setting [1]), 10 to 100 nM; in the assay with Ba/F3 KIT mutant cells (setting [2]) it was 10 to 100 nM; in the assay with Ba/F3 KIT mutant cells (setting [3]), 10 to 100 nM; against c-KIT kinase (uKIT), at most 10 nM. Further, the 50% inhibitory concentration (IC50) in the assay with GIST 430 cells was in the range of 10 to 100 nM.
